Laboratory results published in patent publication US20240100193A1, “Self-complementary AAV vectors carrying dominant negative RhoA and methods of use to treat ocular diseases” (iView Therapeutics, Inc., priority 2022, published 2024).

Tested on: ROCK
Experiment: ROCK Activity Assay Kit on HTM cell lysates treated with ROCK activator or inhibitor
Type: biochemical, human
Settings: for relative ROCK activity normalized to the no drug treated cell lysate: HTM cell lysate
Experimental: The ROCK Activity Assay Kit is an enzyme immunoassay developed for detection of the specific phosphorylation of MYPT1 at Thr696 by ROCK. A strip-well microtiter plate is precoated with a recombinant MYPT1. After incubating the substrate wells with ROCK samples, the phosphorylated MYPT1 is detected by an anti-phospho-MYPT1 (Thr696) antibody.
Human trabecular meshwork cells were seeded into 12-well plates at the density of 500,000 cells per well. 48 hours after seeding, cells were harvested with cell lysis buffer. Cell lysates were treated with ROCK activator or ROCK inhibitor before incubating with precoated strip-wells. The ROCK activity was then measured with the protocol of the kit. Three chemicals were used to activate ROCK: S1P (Sphingosine-1 phosphate at 1 μM), LPA (Oleoyl L-lysophosphatidic acid at 10 μM) and DMOG (Dimethyloxalylglycine at 0.5 mM). […] Data was presented as relative ROCK activity normalized to the no drug treated cell lysate.

With `C[C@@H](N)[C@H]1CC[C@H](C(=O)Nc2ccncc2)CC1` [Y-27632] the “relative ROCK activity normalized to the no drug treated cell lysate” value (Y-27632 at 50 μM) was “decreased”.

`COC(=O)CNC(=O)C(=O)OC` [DMOG, Dimethyloxalylglycine] was tested, and the “relative ROCK activity normalized to the no drug treated cell lysate” value (DMOG at 0.5 mM) was “increased”.

For `CCCCCCCCCCCCC/C=C/[C@@H](O)[C@@H](N)COP(=O)(O)O` [S1P, Sphingosine-1 phosphate], the “relative ROCK activity normalized to the no drug treated cell lysate” value (S1P at 1 μM) was “increased”.

For Oleoyl L-lysophosphatidic acid [LPA], the “rank among the chemical ROCK activators” value (LPA 10 μM compared with S1P 1 μM and DMOG 0.5 mM) was “most potent activator” and the “relative ROCK activity normalized to the no drug treated cell lysate” value (LPA at 10 μM) was “increased”.
